{"source": "patent US7138238B2", "about": "“Ligand sensor devices and uses thereof” (priority 2001, dated 2006)", "key": {"[1]": {"target": "murine skeletal muscle homogenates", "assay": "Ligand sensor device (acoustic wave sensor) binding assay, murine muscle homogenate", "parameters": "species or system mouse", "details": "for Kd: read-out: apparent dissociation constant Kd", "method": "Identification of a peptide of interest. Mice were euthanized with carbon dioxide gas and cats were euthanized with an overdose of pentobarbital administered intravenously (the use of animals was approved by the Auburn University Animal Care and Use Committee). After death, animals were perfused with ice-cold Phosphate Buffered Saline (PBS). Samples of mouse and cat skeletal muscle, mouse kidney, liver and brain were harvested. Tissue aliquots (200 mg) were homogenized in 4 ml PBS using a manual homogenizer. Immediately after homogenization samples were microcentrifuged for 10 min at 3,000 rpm, and the supernatants containing tissue vesicles were separated from the pellets. […] Vesicle concentration and integrity were examined by dark-field microscopy (Vodyanoy et al. (1994) Langmuir 10: 1354–1357). Dilutions of tissue samples were prepared in PBS as follows: 1:5, 1:25, 1:125, and 1:625. To perform the blocking experiment, free ASSLNIA peptide (1 mg/ml) synthesized by Research Genetics, Inc. (Huntsville, Ala., USA) was added to the murine skeletal muscle tissue homogenate (50 mg/ml) and incubated at room temperature for 1 hour with agitation. Protein concentration in tissue samples was determined using Bio-Rad® Protein Assay Kit (Bio-Rad Laboratories, Hercules, Calif., USA). […]\n(§1) Preparation of the sensor. AT-cut planar quartz crystal sensors with a 5 MHz nominal oscillating frequency were purchased from Maxtek, Inc. Circular gold electrodes were deposited on both sides of the crystal sensor for the electrical connection to the oscillatory circuit. The sensor was prepared to be coupled to the peptide by the addition of a Langmuir-Blodgett film of biotinylated lipid. Lipid monolayer depositions were carried out using a Langmuir-Blodgett (LB) film balance KSV 2200 LB (KSV-Chemicals, Finland). This fully computerized system includes a Wilhelmy-type surface balance (range 0–100 mN/m; sensitivity 0.05 mN/m), a Teflon trough (45×15 cm^2), a variable speed motor-driven Teflon barrier (0–200 mm/min), and a laminar flow hood. The trough was mounted on a 200 kg marble table. Vibration control was provided by interposing rubber shock absorbers and by mounting the laminar flow hood on a separate bench. Surface pressure was monitored by use of a sandblasted platinum plate of 4-cm perimeter. The temperature of the aqueous subphase (20° C. ±0.1° C.) was controlled by water circulation through a quartz tube coil on the bottom of the trough. The temperature of the aqueous subphase was measured by a thermistor located just below the air/liquid interface.\nMonolayers were transferred onto the gold surface of an acoustic wave sensor using the Langmuir-Blodgett technique. Lipid solutions were spread on the aqueous subphase as hexane solutions (1 mg/ml) containing 2% ethanol (Ito et al. (1989) Thin Solid Films 180: 1–13). The lipid solutions contained phospholipid (N (biotinoyl)-1,2-dihexadecanoyl-SN-glycero-3-phosphoethanolamine). The aqueous subphase was a solution containing 55 mM KCl, 4 mM NaCl, 0.1 mM CaCl2, 1 mM MgCl2 and 2 mM 3-(N-morpholino)-propanesulfonic acid (MOPS) made with deionized double distilled water (pH 7.4). After spreading, the monolayer was allowed to equilibrate and stabilize for 10 min at 19° C."}, "[2]": {"test_system": "feline skeletal muscle homogenate", "assay": "Ligand sensor device binding assay, feline muscle homogenate", "parameters": "species or system cat", "method": "(§2) Identification of a peptide of interest. Mice were euthanized with carbon dioxide gas and cats were euthanized with an overdose of pentobarbital administered intravenously (the use of animals was approved by the Auburn University Animal Care and Use Committee). After death, animals were perfused with ice-cold Phosphate Buffered Saline (PBS). Samples of mouse and cat skeletal muscle, mouse kidney, liver and brain were harvested. Tissue aliquots (200 mg) were homogenized in 4 ml PBS using a manual homogenizer. Immediately after homogenization samples were microcentrifuged for 10 min at 3,000 rpm, and the supernatants containing tissue vesicles were separated from the pellets. […] Vesicle concentration and integrity were examined by dark-field microscopy (Vodyanoy et al. (1994) Langmuir 10: 1354–1357). Dilutions of tissue samples were prepared in PBS as follows: 1:5, 1:25, 1:125, and 1:625. To perform the blocking experiment, free ASSLNIA peptide (1 mg/ml) synthesized by Research Genetics, Inc. (Huntsville, Ala., USA) was added to the murine skeletal muscle tissue homogenate (50 mg/ml) and incubated at room temperature for 1 hour with agitation. Protein concentration in tissue samples was determined using Bio-Rad® Protein Assay Kit (Bio-Rad Laboratories, Hercules, Calif., USA).\nA 7-mer phage display peptide library (New England Biolabs, Inc., Beverly, Mass., USA) was screened as described in Samoylova and Smith (1999) Muscle & Nerve 22: 460–466.\nas §1, with “interface. […]” for “interface.”"}, "murine kidney homogenate": {"test_system": "murine kidney homogenate", "assay": "Ligand sensor device selectivity assay, murine kidney homogenate", "format": "binding, mouse", "method": "as §2\n(§3) Coupling the peptide of interest to the sensor. The sensor, prepared as described above by the addition of a Langmuir-Blodgett film of biotinylated lipid, was then coupled to the peptide of interest by molecular assembly with streptavidin. Streptavidin was diluted to a final concentration of 0.01 mg/ml in the subphase solution and exposed to the LB film for 2 hours; the film was then rinsed with distilled water and dried for 2 min in ambient air. […] If necessary, this preparation step could be followed by a blocking step with a biotin solution. In this manner, the peptide of interest was coupled with the phospholipid via molecular assembly with streptavidin (see FIG. 1), thereby coupling the peptide of interest to the sensor to create the ligand sensor device (LSD). Each LSD was placed in an individual Petri dish and stored no longer than 24 hours at 4° C. until affinity assays were performed.\nQuantifying the signal output from the ligand sensor device (LSD). Measurements were carried out using a PM-740 Maxtek plating monitor with a frequency resolution of 0.5 Hz at 5 MHz. The voltage output from the Maxtek device is directly related to the resonance frequency of the quartz crystal sensor. Changes in the resonance frequency of the quartz crystal sensor were used to monitor the binding of homogenate vesicles to the sensor surface.\nTo evaluate the affinity of a ligand, the LSD was positioned in the probe arm of the instrument just before delivery of samples. Immediately after recording was started, 1000 μl phosphate buffered saline (PBS) was delivered with a pipette to the dry sensor surface and voltage was recorded for 4–8 minutes. The PBS was then removed carefully with a plastic pipette tip and a new recording was initiated. Tissue homogenates of different dilutions were added sequentially to the sensor and the same measuring procedure was followed after each addition. Each experiment was replicated 2–4 times, and the temperature of all samples was 25° C. Voltage output of the LSD was recorded and records were analyzed offline.\nBinding selectivity of the Ligand Sensor Device."}, "murine brain homogenate": {"test_system": "murine brain homogenate", "assay": "Ligand sensor device selectivity assay, murine brain homogenate", "format": "binding, mouse", "method": "as §2, §3\n(§4) Quantifying the signal output from the ligand sensor device (LSD). Measurements were carried out using a PM-740 Maxtek plating monitor with a frequency resolution of 0.5 Hz at 5 MHz. […]\n(§5) To evaluate the affinity of a ligand, the LSD was positioned in the probe arm of the instrument just before delivery of samples. Immediately after recording was started, 1000 μl phosphate buffered saline (PBS) was delivered with a pipette to the dry sensor surface and voltage was recorded for 4–8 minutes. […] Voltage output of the LSD was recorded and records were analyzed offline. […]"}, "murine liver homogenate": {"test_system": "murine liver homogenate", "assay": "Ligand sensor device selectivity assay, murine liver homogenate", "format": "binding, mouse", "method": "as §2, §3, §4, §5"}, "[3]": {"details": "Table 1, blocked muscle: homogenate (50 mg/ml) incubated with free peptide (1 mg/ml) 1 hour at room temperature"}, "[4]": {"details": "Table 2, murine muscle homogenate"}, "[5]": {"details": "Table 2, feline muscle homogenate"}}, "note": "Read-outs that look alike come from different tables or passages of the source. Primed or numbered codes have the meaning given here. Ends that are not written are not given here. Biotin′ = not defined here", "data": [{"substance": "7-mer peptide selected in vivo for murine myofibers by phage display; coupled to the sensor as ASSLNIAGGGSK-Biotin (SEQ ID NO:3) (ASSLNIAGGGSK-{Biotin′}; also: coupled to the sensor)", "values": [{"measurement": "apparent dissociation constant Kd", "setting": "[1]; [3]", "value": "320 ± 50", "unit": "µg/mL"}, {"measurement": "apparent maximal surface concentration of protein Mmax", "setting": "[1]; [3]", "value": "34.4 ± 3.0", "unit": "ng/cm^2"}, {"measurement": "apparent dissociation constant Kd", "setting": "[1]; Table 1, murine muscle homogenate, calculated from Hill plots", "value": 280, "unit": "µg/mL"}, {"measurement": "apparent maximal surface concentration of protein Mmax", "setting": "[1]; Table 1, murine muscle homogenate, estimated from increase of sensor voltage", "value": "54.0 ± 4.0", "unit": "ng/cm^2"}, {"measurement": "Mmax", "setting": "[1]; [4]", "value": "50.5 ± 3.0", "unit": "ng/cm^2"}, {"measurement": "apparent dissociation constant Kd", "setting": "[1]; [4]", "value": "320 ± 50", "unit": "µg/mL"}, {"measurement": "Hill coefficient", "setting": "[1]; Table 2, murine muscle homogenate, equation 2", "value": "0.92 ± 0.04"}, {"measurement": "sensitivity (S), slope of dose response", "setting": "[1]; Table 3, murine muscle", "value": "134 ± 20.0", "unit": "V/decade"}, {"measurement": "apparent dissociation constant, level", "setting": "[1]; assuming only a fraction of molecules on vesicle surface bind the peptide", "value": "subnanomolar level"}, {"measurement": "Kd", "setting": "[1]; corrected for target molecules being ~0.5% of vesicle mass", "value": "5 to 10", "unit": "nM"}, {"measurement": "Selectivity coefficient, K", "setting": "[1]; murine muscle (reference), K = Stissue/Smuscle", "value": 1.0, "unit": "relative units"}, {"measurement": "Activity ratio, R", "setting": "[1]; murine muscle (reference), protein concentration 0.01 mg/ml", "value": 1.0, "unit": "relative units"}, {"measurement": "time to approach steady-state signal output τ2", "setting": "[1]; murine muscle homogenate, each concentration, FIG. 2", "value": "70 ± 20", "unit": "s"}, {"measurement": "initial delay in signal output response τ1", "setting": "[1]; murine muscle homogenate, independent of concentration, FIG. 2", "value": "8 ± 1", "unit": "s"}, {"measurement": "sensor response", "setting": "[1]; murine muscle homogenates", "value": "strong response"}, {"measurement": "protein concentration at which signal was saturated", "setting": "[1]; murine muscle homogenates, FIG. 3", "value": "about 5.0 mg/ml"}, {"measurement": "sensor signal after blocking", "setting": "[1]; preincubation of muscle homogenates with free peptide", "value": "significantly reduced signal"}, {"measurement": "Kd", "setting": "[1]; speculating target molecule of about 75–150 kD", "value": "1000 to 2000", "unit": "nM"}, {"measurement": "Mmax", "setting": "[2]; [5]", "value": "32.8 ± 2.0", "unit": "ng/cm^2"}, {"measurement": "apparent dissociation constant Kd", "setting": "[2]; [5]", "value": "370 ± 50", "unit": "µg/mL"}, {"measurement": "Hill coefficient", "setting": "[2]; Table 2, feline muscle homogenate, equation 2", "value": "0.93 ± 0.04"}, {"measurement": "sensor response", "setting": "[2]; feline muscle homogenates, compared to murine muscle", "value": "appreciable, but lower responses"}, {"measurement": "kidney homogenate needed to induce same response as 0.01 mg/ml muscle homogenate", "setting": "murine kidney homogenate", "value": "more than 100 mg/ml"}, {"measurement": "sensitivity (S), slope of dose response", "setting": "murine kidney homogenate; Table 3, murine kidney", "value": "41.8 ± 7.0", "unit": "V/decade"}, {"measurement": "selective preference for ligand(s) in muscle over kidney homogenates, factor", "setting": "murine kidney homogenate; at 0.01 mg/ml muscle homogenate", "value": "more than 10,000"}, {"measurement": "sensor response", "setting": "murine kidney homogenate; murine kidney preparation", "value": "insignificant responses"}, {"measurement": "Selectivity coefficient, K", "setting": "murine kidney homogenate; murine kidney, K = Stissue/Smuscle", "value": "(3.1 ± 1.0) × 10^−1 relative units"}, {"measurement": "sensitivity (S), slope of dose response", "setting": "murine brain homogenate; Table 3, murine brain", "value": "62.5 ± 16", "unit": "V/decade"}, {"measurement": "sensor response", "setting": "murine brain homogenate; murine brain preparation", "value": "insignificant responses"}, {"measurement": "Selectivity coefficient, K", "setting": "murine brain homogenate; murine brain, K = Stissue/Smuscle", "value": "(4.6 ± 1.4) × 10^−1 relative units"}, {"measurement": "Activity ratio, R", "setting": "murine brain homogenate; murine brain, R = ΔCmuscle/ΔCtissue at protein concentration 0.01 mg/ml", "value": "(3.4 ± 1.1) × 10^−3 relative units"}, {"measurement": "sensitivity (S), slope of dose response", "setting": "murine liver homogenate; Table 3, murine liver", "value": "67.3 ± 6.0", "unit": "V/decade"}, {"measurement": "sensor response", "setting": "murine liver homogenate; murine liver preparation", "value": "insignificant responses"}, {"measurement": "Selectivity coefficient, K", "setting": "murine liver homogenate; murine liver, K = Stissue/Smuscle", "value": "(5.0 ± 1.5) × 10^−1 relative units"}, {"measurement": "Activity ratio, R", "setting": "murine liver homogenate; murine liver, R = ΔCmuscle/ΔCtissue at protein concentration 0.01 mg/ml", "value": "(1.1 ± 0.4) × 10^−3 relative units"}]}]}
